Reference: US20070142395A1, “Treatment of sexual dysfunction with 1-[3-[4-(3-chlorophenyl)-1-piperazinyl]propyl]-5-methoxy-3,4-dihydro-2(1H)-quinolone or salt thereof” (Vela Pharmaceuticals, Inc., priority 2005, published 2007)
Values joined by “and” are separate entries in the source; they are usually repeats but may differ in a detail not shown here. Equal values may be shown once. Marks after values point to notes of the source that are not given here.

Tested on: patients with MDD
Experiment: Changes in Sexual Function Questionnaire (CSFQ) scores, double-blind placebo-controlled clinical study
Assay type: in vivo, Humans
Design: key to CSFQ Desire/Interest score / CSFQ Arousal/Excitement score / CSFQ Orgasm/Completion score / CSFQ Total Score / CSFQ Pleasure score / CSFQ Desire/Frequency score: CSFQ items on 5-point scale; higher = more favorable sexual function
Protocol: A double-blind, randomized, placebo-controlled, parallel-group study was performed to evaluate the efficacy, safety and tolerability of OPC-14523 in patients with MDD. The patients selected for participation in the trial had to meet DSM-IV-TR criteria for MDD (296.2x or 296.3x; diagnosis via MINI) and had had symptoms of depression for at least 2 months before the start of the double-blind treatment. Among other drugs prohibited during the study, patients were prohibited from taking drugs used to enhance sexual function, including, but not limited to, sildenafil, tadalafil and vardenafil, or taking psychopharmacologic drugs.
There were 131 patients assigned to receive OPC-14523 at the start of the study. One hundred twenty seven (127) of these patients took at least one dose of OPC-14523. There were 137 patients assigned to receive placebo at the start of the study. One hundred thirty three (133) of these patients took at least one dose of placebo.
Each patient was expected to participate for up to 10 weeks. The 10 weeks included: i) a 4- to 10-day screening period, during which potential participants were administered placebo in a single-blind manner; ii) an 8-week double-blind treatment period; and iii) a 4- to 10- day post-treatment visit period. Baseline evaluations, including assessment of sexual function, were conducted on Day −1. The next day, Day 1, the double-blind medication was begun. All treatment was on an outpatient basis.
The dosages studied were 5 mg BID OPC-14523 (10 mg total daily dose of immediate release tablet of Example 1) and placebo. The drugs were taken after meals in the morning and in the evening, about 12 hours apart.
Data on sexual function were collected using the Changes in Sexual Function Questionnaire (CSFQ). The CSFQ is a 14-item self-report measure of sexual functioning vis-â-vis experiences of pleasure, desire, arousal, and orgasm, with a 5-point response option for each item. The 14-item validated CSFQ was developed from a questionnaire comprising 35 and 36 items for female and male respondents, respectively (Clayton et al., Psychopharmacol Bull. 33(4):731-45 (1997) and Clayton et al., Psychopharmacol Bull. 33(4):747-53 (1997), each incorporated herein by reference in its entirety). The CSFQ has also been independently validated (Bobes et al., J Sex Marital Ther. 26(2): 119-31(2000)). The 14-item CSFQ includes items 8, 11, 14, 19-24 from the interview version of the CSFQ (“CSFQ-I”); Clayton et al., Psychopharmacol Bull. 33(4):731-45 (1997)). The CSFQ differs for men and women, reflecting some variation in wording of items. Males were given the male clinical version, CSFQ-M-C, and women were given the female clinical version, CSFQ-F-C. CSFQ-F-C includes items 25, 27, 28, 30 and 31 from the questions for women on the CSFG-I. CSFQ-M-C includes items 28-32 from the questions for men on the CSFQ-I, as well as item 25 from the questions for women.
The 14-item CSFQ has subscales for sexual pleasure (1 item), desire/frequency (2 items), desire/interest (3 items), arousal (3 items), and orgasm (3 items). In addition, a 14-item total score may be calculated. Higher scores are indicative of more favorable sexual functioning. Threshold scores for total and sub-scales have been defined. A score below the threshold score indicates dysfunction.
Results were scored and analyzed according to the CSFQ instruction manual. The p-values resulted from an analysis of covariance (ANCOVA) linear model where the dependent variable is the change from baseline and independent variables are site effect, treatment effect, and baseline. The p-value is from the Type III sums of squares t-test for the hypothesis that the treatment groups are the same versus the alternative they are different. Last observation carry-forward (LOCF) analysis was used as indicated. In the LOCF analysis, for patients who dropped out before completion of the study, the last observations were carried forward to the final time point. […]

[1] = all patients (men and women), Baseline, before treatment
[2] = all patients (men and women), Day 28, 5 mg BID, LOCF
[3] = all patients (men and women), Day 56, 5 mg BID, LOCF
[4] = men only, Baseline, before treatment
[5] = men only, Day 28, 5 mg BID, LOCF
[6] = men only, Day 56, 5 mg BID, LOCF
[7] = women only, Baseline, before treatment
[8] = women only, Day 28, 5 mg BID, LOCF
[9] = women only, Day 56, 5 mg BID, LOCF

`COc1cccc2c1CCC(=O)N2CCCN1CCN(c2cccc(Cl)c2)CC1` [OPC-14523, 1-[3-[4-(3-chlorophenyl)-1-piperazinyl]propyl]-5-methoxy-3,4-dihydro-2(1H)-quinolone] was tested, and the “CSFQ Arousal/Excitement score” value [1] was 8.97, the “CSFQ Desire/Frequency score” value [1] was 5.13 and the “CSFQ Desire/Interest score” value [1] was 7.30. For the same compound, the “CSFQ Orgasm/Completion score” value [1] was 9.50, the “CSFQ Pleasure score” value [1] was 2.06 and the “CSFQ Total Score” value [1] was 41.9. The “CSFQ Arousal/Excitement score” value [2] was 9.24, the “CSFQ Desire/Frequency score” value [2] was 5.39 and the “CSFQ Desire/Interest score” value [2] was 7.66. The “CSFQ Orgasm/Completion score” value [2] was 9.56, the “CSFQ Pleasure score” value [2] was 2.41** and the “CSFQ Total Score” value [2] was 43.4. For the same compound, the “CSFQ Arousal/Excitement score” value [3] was 9.55, the “CSFQ Desire/Frequency score” value [3] was 5.57* and the “CSFQ Desire/Interest score” value [3] was 7.94*. For the same compound, the “CSFQ Orgasm/Completion score” value [3] was 9.77, the “CSFQ Pleasure score” value [3] was 2.51 (p = 0.11) and the “CSFQ Total Score” value [3] was 44.4 (p = 0.05). For the same compound, the “sexual function overall, CSFQ Total Scores (in words)” value (all patients, compared with placebo, Day 28 and/or Day 56) was “significantly improved sexual function overall”, the “sexual desire (in words)” value (both men and women) was “increased sexual desire” and the “sexual pleasure and sexual arousal and excitement (in words)” value (men) was “strong trend of improved sexual pleasure and sexual arousal and excitement”. For the same compound, the “CSFQ Arousal/Excitement score” value [4] was 10.5 and 10.48, the “CSFQ Desire/Frequency score” value [4] was 5.8 and 5.77 and the “CSFQ Desire/Interest score” value [4] was 8.2 and 8.21. The “CSFQ Orgasm/Completion score” value [4] was 11.3 and 11.33, the “CSFQ Pleasure score” value [4] was 2.2 and 2.15 and the “CSFQ Total Score” value [4] was 47.6. For the same compound, the “CSFQ Arousal/Excitement score” value [5] was 11.13 (p = 0.07), the “CSFQ Desire/Frequency score” value [5] was 6.26* and the “CSFQ Desire/Interest score” value [5] was 8.94*. The “CSFQ Orgasm/Completion score” value [5] was 11.32, the “CSFQ Pleasure score” value [5] was 2.68*** and the “CSFQ Total Score” value [5] was 50.1*. The “CSFQ Arousal/Excitement score” value [6] was 11.17 (p = 0.13), the “CSFQ Desire/Frequency score” value [6] was 6.38* and the “CSFQ Desire/Interest score” value [6] was 8.91 (p = 0.07). For the same compound, the “CSFQ Orgasm/Completion score” value [6] was 11.34, the “CSFQ Pleasure score” value [6] was 2.60 (p = 0.10) and the “CSFQ Total Score” value [6] was 50.2 (p = 0.12). The “sexual function overall (in words)” value (men, compared with placebo, Day 28 and/or Day 56) was “significantly improved sexual function overall”, the “sexual interest (in words)” value (men, p=0.07) was “improved sexual interest” and the “total CSFQ and every subscale vs placebo (in words)” value (summary) was “advantage over placebo”. For the same compound, the “CSFQ Arousal/Excitement score” value [7] was 7.9 and 7.91, the “CSFQ Desire/Frequency score” value [7] was 4.7 and 4.68 and the “CSFQ Desire/Interest score” value [7] was 6.7 and 6.66. For the same compound, the “CSFQ Orgasm/Completion score” value [7] was 8.2 and 8.21, the “CSFQ Pleasure score” value [7] was 2.0 and 1.99 and the “CSFQ Total Score” value [7] was 37.8. The “CSFQ Arousal/Excitement score” value [8] was 7.91, the “CSFQ Desire/Frequency score” value [8] was 4.78 and the “CSFQ Desire/Interest score” value [8] was 6.76. The “CSFQ Orgasm/Completion score” value [8] was 8.33, the “CSFQ Pleasure score” value [8] was 2.22 and the “CSFQ Total Score” value [8] was 38.7. The “CSFQ Arousal/Excitement score” value [9] was 8.43, the “CSFQ Desire/Frequency score” value [9] was 5.01 and the “CSFQ Desire/Interest score” value [9] was 7.26 (p = 0.08). The “CSFQ Orgasm/Completion score” value [9] was 8.69, the “CSFQ Pleasure score” value [9] was 2.46 and the “CSFQ Total Score” value [9] was 40.4. The “sexual desire/interest (in words)” value (women, compared with placebo, Day 28 and/or Day 56) was “strong trend” and the “sexual interest (in words)” value (women, p=0.08) was “improved sexual interest”.
